Measurements from patent US20130012497A1, “METHODS FOR DETECTING ADHD SUSCEPTIBILITY AND […] AND LONG TERM OUTCOME OF ADHD SYMPTOMS” (The United States of America, as represented by the …, priority 2011, published 2013).

Tested on: ADHD symptoms
Experiment: Treatment response to stimulant medication on the SWAN scale, by LPHN3-11q genotype
Format: in vivo, human
Settings: 82 individuals, US1 sample
Experimental: Eighty-two individuals with complete genotype and phenotype information were sampled from the original 240 trios in the US1 sample of Example 1. A comparative analyses regarding stimulant treatment was done as described in Arcos-Burgos et al., Mol. Psychiatry, 15(11): 1053-66 (2010). An analysis was performed to determine the relationship of SWAN scale (Strengths and Weaknesses of ADHD Symptoms and Normal Behavior scale) questions individually as well as inattentive and hyperactive combined dimensions (questions 1-9 indicate inattentive symptoms and questions 10-18 indicate hyperactive symptoms), prior to and after starting treatment with the stimulant methylphenidate.

COC(=O)C(c1ccccc1)C1CCCCN1 (centres unmarked) [methylphenidate]
response to stimulant medication treatment (SWAN scale) (individuals having AA at rs6551665 and fewer than two copies of the susceptibility haplotype on 11q): poor response | change of symptoms after treatment with stimulant medication (SWAN scale question 18, hyperactive-impulsive dimension) (individuals having GG at rs6551665 and two copies of the susceptibility haplotype on 11q): significant improvement of symptoms
